Measured values from patent US4774381A, “Herbicide resistant tobacco” (E. I. Du Pont de Nemours and Company, priority 1985, dated 1988).

Tests used:
S4/S4 callus = assay: Callus growth test with chlorsulfuron and structural analogues; type: cell-based, Nicotiana tabacum; conditions: 10 ppb compound, 2 weeks in the dark
Protocol: (§1) In these growth tests, petri dishes containing C1 agar medium and 10 ppb of the sulfonamide herbicide chlorsulfuron and Compounds A through E were prepared. A sterile filter paper disc was placed in the center of each plate, and inoculated with 250 mg of callus tissue homozygous for the S4 mutation, or callus tissue derived from the haploid parent H1. The resulting cultures were incubated at 25° in the dark for 2 weeks. At the conclusion of the incubation period, filter discs containing callus cells were removed from culture dishes, placed on a Buchner funnel, and gentle suction applied to remove excess water. The resulting callus mass was then carefully scraped from the filter disc and weighed. Four replicates were included in each experiment.

H1 (parent) callus = assay: as above; type: cell-based, Nicotiana tabacum; conditions: 10 ppb compound, 2 weeks in the dark
Protocol: as §1

[1] = system: "resistant" regenerated plants; conditions: paraquat 10^-5 M; cited from earlier work
control plants = conditions: paraquat 10^-5 M; cited from earlier work
[2] = system: picloram-tolerant tobacco mutants; conditions: cited from earlier work

Row | SMILES | Mean Fresh Weight (S4/S4 callus) [g] | Mean Fresh Weight (H1 (parent) callus) [g] | other results
1 | Cc1cc(C)nc(NC(=O)NS(=O)(=O)c2ccccc2Cl)n1 [A] | 5.16 | 0 | –
2 | COc1cc(C)nc(NC(=O)NS(=O)(=O)c2ccccc2Cl)n1 [B] | 5.60 | 0 | –
3 | COc1cc(OC)nc(NC(=O)NS(=O)(=O)c2ccccc2Cl)n1 [C] | 5.08 | 0 | –
4 | Cc1nc(C)nc(NC(=O)NS(=O)(=O)c2ccccc2Cl)n1 [D] | 4.53 | 0 | –
5 | COc1nc(NC(=O)NS(=O)(=O)c2ccccc2Cl)nc(OC)n1 [E] | 4.97 | 0 | –
6 | C[n+]1ccc(-c2cc[n+](C)cc2)cc1 [paraquat] | – | – | time for leaves to bleach to white [1]: 4 to 7 days; time for leaves to bleach to white (average) (control plants): 3.5 days
7 | Nc1c(Cl)c(Cl)nc(C(=O)O)c1Cl [picloram, 4-amino-3,5,6-trichloropicolinic acid] | – | – | seed germination ([2]; 100 μM picloram, seeds of tolerant mutants): germinated; plantlet development ([2]; one month's exposure to 50 μM picloram, plantlets homozygous for tolerance mutations): developed stem callus tissue and degenerated
